According to US20040116530A1, “Tissue fibrosis inhibitors” (priority 2001, published 2004):
Marks after values point to notes of the source that are not given here.

Legend:
[1] = test system: acute hepatitis; details: literature statement; cited from earlier work
[2] = test system: bleomycin-induced mouse fibrotic lung models; experiment: Bleomycin-induced lung fibrosis model in mice; type: in vivo
Procedure: Bleomycin was frequently administered to mice for 10 days to thereby make the mice fibrotic lung. The mice are the test models in this experiment. As the index of lung fibrogenesis, the lung hydroxyproline was measured in every mouse, from which the effect of the prostaglandin-I2 agonist for inhibiting lung fibrogenesis was investigated.
1. 10 mg/kg of bleomycin that had been dissolved in saline to have a concentration of 1 mg/ml was intraperitoneally administered to 8-weeks-old male C57BL/6N mice, once a day, everyday for continuous 10 days. Saline alone was intraperitoneally administered to the negative control group.
2. To the animals of the positive control group and the test compound-administered group, 10 ml/kg of pure water or an aqueous solution of the test compound (32 mg/kg) was orally administered everyday during the test period from the start of the bleomycin administration.
3. 4 weeks after the start of the bleomycin administration, the animals were killed in a mode of euthanasia, the lung was taken out, its wet weight was measured, and the lung was then freesed at −30° C.
4. […]
5. The hydrolyzed sample was neutralized with 6 mols/liter of potassium hydroxide, and the hydroxyproline content of the sample was measured, from which the lung hydroxyproline content was derived. […]

[3] = test system: dimethylnitrosamine-induced rat hepatitis models; experiment: Dimethylnitrosamine-induced rat hepatitis model (hepatic injury and fibrogenesis); type: in vivo; details: for Hepatic Fibrogenesis Score: n=15, histology (azan stain), grade 0-4
Procedure: Dimethylnitrosamine was frequently administered to rats for 3 weeks to thereby make the rats have irreversible hepatic fibrogenesis. The rats are the test models in this experiment. As the index of hepatic injury and fibrogenesis, the hepatic hydroxyproline was measured in every rat and the liver tissue of each rat was pathologically analyzed. Based on the data, the tissue fibrogenesis-inhibiting effect of the prostaglandin-I2 agonist was evaluated.
10 mg/kg of dimethylnitrosamine was intra-abdominally administered to rats everyday in continuous 3 days a week, over a period of three weeks. 5 days after the final administration of dimethylnitrosamine, the liver was taken out of each rat and its weight was measured. Then, distal potion of the left lobe of the liver was cut out. A part of it was used for histologic analysis^*1) for hepatic fibrogenesis; and another part thereof was used for determination of hepatic hydroxyproline content^*2).
The test compound was orally administered to the rats from the initial dimethylnitrosamine administration to one day before the blood collection from the rats. On the day for dimethylnitrosamine administration, the test compound was administered 12 hours after the dimethylnitrosamine administration; and on the other day, it was administered once a day. The effect of the test compound for curing hepatic injury and fibrogenesis was investigated. The test compound was administered to three groups −1 mg/kg/day administration group (n =15), 3.2 mg/kg/day administration group (n=15), and 10 mg/kg/day administration group (n=15). To the comparative control group, 0 mg/kg administration group (n=15), a solvent was administered in place of the test compound. To confirm the presentation of hepatic fibrogenesis through
dimethylnitrosamine administration, a solvent in place of dimethylnitrosamine was administered to a no-treatment group (n=5).
A distal potion of the left lobe of the liver was fixed in 10% neutral buffer formalin liquid, then stained with azan to prepare an anatomicopathological specimen, on which the degree of fibrogenesis was classified into 5 grades according to the fibrogenesis criteria mentioned below.
Grade 0: No fibrogenesis was found.
Grade 1: Light fibrogenesis was found only locally in and around the portal vein and the central vein.
Grade 2: The fibrogenesis in and around the portal vein and the central vein extended to the lobe.
Grade 4: High-level fibrogenesis was found along with pseudo lobe formation.
A part of the left lobe of the liver that had been frozen at −80° C. was thawed, and 1 ml/500 mg-liver weight of phosphate balanced salt buffer (PBS(−), Dulbecco PBS(−)) was added to it. Then, this was homogenized in Polytron (power control 7, type; PT 10 20 350D, by KINEMATICA) for 1 minute. 4 ml of the thus-homogenized liquid was transferred into a screw cap-equipped centrifuge (by PYREX), and 0.4 ml of 9M HCl was added to it and incubated at120° C. for 8 hours (in DRYING STERILIZER SG-62, by YAMATO). Next, this was further incubated at 4° C. overnight, then neutralized with 6 M KOH and 9M HCl, and then filtered (pore size 0.45 μm, MILLIPORE). 1 ml of chloramine-T^(**) was added to 100 μl of the filtrate or a standard liquid^(*), and left at room temperature for 20 minutes. 1 ml of Ehrich solution^(***) was added to it, and incubated at 65° C. for 40minutes. The reaction was stopped in ice-water, and then the absorbance (OD560) of the reaction liquid was measured with an spectrophotometer UV2100PC (UV-VIS SCANNING SPECTRO PHOTOMETER, by SHIMADZU).

[4] = test compound-administered groups (1, 3.2, 10 mg/kg/day oral) vs dimethylnitrosamine control, figure only

Compound	hepatic coagulation necrosis in acute hepatitis [1]	Hydroxyproline Content (lung) ([2]; 32 mg/kg oral daily, 4 weeks after start of bleomycin, n=15, positive control 398.19 ± 15.483, negative control 200.03 ± 6.9707, p < 0.01 vs positive control) [ug/lung]	increase in the lung hydroxyproline content caused by bleomycin administration ([2]; oral administration of 32 mg/kg)	Hepatic Fibrogenesis Score ([3]; 1 mg/kg/day oral, control (0 mg/kg) 2.1 ± 0.2)	Hepatic Fibrogenesis Score ([3]; 3.2 mg/kg/day oral, p < 0.05 vs. 0 mg/kg (2.1 ± 0.2))	Hepatic Fibrogenesis Score ([3]; 10 mg/kg/day oral, p < 0.05 vs. 0 mg/kg (2.1 ± 0.2))	hepatic fibrogenesis (histology), in words ([3]; test compound-administered groups (1, 3.2, 10 mg/kg/day oral) vs dimethylnitrosamine control)	hepatic hydroxyproline content (hepatic collagen content) [3, 4]	liver weight reduction [3, 4]
CC#CCC(C)[C@H](O)/C=C/[C@@H]1[C@H]2c3cccc(CCCC(=O)O)c3O[C@H]2C[C@H]1O (mixture of isomers) [beraprost]	inhibits hepatic coagulation necrosis								
O=C(O)COc1cccc2c1CC[C@](O)(COC(=O)N(c1ccccc1)c1ccccc1)C2 [Test compound, [[(2R)-5-(carboxymethoxy)-2-hydroxy-1,2,3,4-tetrahydronaphth-2-yl]methyl]N,N-diphenylcarbamate]		308.37 ± 19.403	significantly inhibited	1.7 ± 0.2	1.3 ± 0.2*	1.3 ± 0.2*	inhibited	decreased	suppressed
